Results published in patent US20100227853A1, “INHIBITORS OF CYCLIC AMP PHOSPHODIESTERASES” (Trustees of Boston College, priority 2008, published 2010).

Legend:
PDE4A5 = target: T1, PDE4A5 (Rattus norvegicus, UniProt P54748); test: 5FOA growth assay in fission yeast strain expressing PDE4A5; type: cell-based; details: for Composite Z score, PDE4A5: high throughput 5FOA growth screen
T1 construct: targets used in the assays are full-length proteins (as opposed to simply the catalytic domain); expressed in transfected cells; host or cells: Schizosaccharomyces pombe, PDE gene integrated in place of cgs2
T1 sequence (P54748 1-844): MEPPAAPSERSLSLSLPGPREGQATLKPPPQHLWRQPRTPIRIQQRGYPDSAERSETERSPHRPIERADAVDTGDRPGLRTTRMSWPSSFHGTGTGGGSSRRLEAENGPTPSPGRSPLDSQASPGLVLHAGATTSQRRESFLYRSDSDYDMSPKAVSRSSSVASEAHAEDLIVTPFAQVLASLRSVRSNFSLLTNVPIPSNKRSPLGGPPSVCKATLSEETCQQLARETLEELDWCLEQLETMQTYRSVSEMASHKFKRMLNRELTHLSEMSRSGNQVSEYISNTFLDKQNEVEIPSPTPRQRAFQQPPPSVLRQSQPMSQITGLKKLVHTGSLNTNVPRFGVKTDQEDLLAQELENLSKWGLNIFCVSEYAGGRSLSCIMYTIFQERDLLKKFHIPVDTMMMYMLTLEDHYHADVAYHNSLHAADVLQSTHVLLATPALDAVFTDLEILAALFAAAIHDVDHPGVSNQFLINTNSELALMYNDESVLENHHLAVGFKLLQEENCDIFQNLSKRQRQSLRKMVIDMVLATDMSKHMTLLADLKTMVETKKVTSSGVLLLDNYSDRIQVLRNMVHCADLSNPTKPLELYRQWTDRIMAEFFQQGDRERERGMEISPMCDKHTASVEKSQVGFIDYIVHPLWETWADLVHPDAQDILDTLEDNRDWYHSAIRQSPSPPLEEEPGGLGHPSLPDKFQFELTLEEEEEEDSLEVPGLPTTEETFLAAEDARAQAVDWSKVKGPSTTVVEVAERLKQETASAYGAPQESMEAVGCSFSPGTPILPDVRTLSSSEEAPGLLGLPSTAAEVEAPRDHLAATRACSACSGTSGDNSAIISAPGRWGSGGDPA
Protocol: High throughput drug screens were carried out at the Broad Institute's Chemical Biology Program screening facility (Broad Institute, Cambridge, Mass.). Depending upon the strain, cultures were pregrown to exponential phase in EMM complete medium containing from 0.5 to 2.5 mM cAMP to repress fbp1-ura4 transcription. Cells were collected by centrifugation, resuspended in 5FOA medium, and 25 μl were transferred to 384-well microtiter dishes (untreated, with flat clear bottoms) that had been pre-filled with 25 μl 5FOA medium and pre-pinned with 100 nl of compounds (stock solutions were generally 10 mM) from a subset of the Prestwick Bioactive and the Microsource Spectrum compound libraries. Starting cell concentrations ranged from 0.5×10^5 to 4×10^5 cells/ml depending on the screening strain. […] Other positive control dishes contained 5 mM cAMP in the 5FOA medium. Cultures were grown for 48 hours at 30° C., sealed in an airtight container with moist paper towels to prevent evaporation. Optical densities (OD600) of cultures were measured using a microplate reader. Bioinformatic analysis of the results to determine composite Z scores was performed as previously described^30, 31.
Cells were pregrown in EMM medium [MP Biomedicals (Solon, Ohio), 3% glucose, filter-sterilized to avoid carmelization, which would introduce variability into the optical density of the medium] containing from 0 mM to 2.5 mM cAMP (or either 0.5 mM or 1.0 mM cGMP). This was to repress expression of the fbp1-ura4 reporter prior to exposure of cells to 5FOA medium. Cells were grown at 30° C. to exponential phase (approximately 10^7 cells/ml). Cells were collected by centrifugation and resuspended in 5FOA medium, and 25 μl were transferred to 384-well microtiter dishes (untreated, with flat clear bottoms) that had been pre-filled with 25 μl 5FOA medium and pre-pinned with 100 nl of compounds (stock solutions were generally 10 mM). Starting cell concentrations ranged from 0.5×10^5 to 4×10^5 cells/ml depending on the screening strain. […] Other positive control dishes contained 5 mM cAMP in the 5FOA medium for PDEs that lack appropriate control compounds. Cultures were grown for 48 hours at 30° C., sealed in an airtight container with moist paper towels to prevent evaporation. Optical densities (OD600) of cultures were measured using a microplate reader. Bioinformatic analysis of the results to determine composite Z scores was performed as previously described (1, 3).

PDE7A = PDE7A (Homo sapiens, UniProt Q13946); test: 5FOA growth assay in fission yeast strain expressing PDE7A; type: cell-based; parameters: targets used in the assays are full-length proteins (as opposed to simply the catalytic domain); expressed in transfected cells; host or cells: Schizosaccharomyces pombe, PDE gene integrated in place of cgs2; details: for Composite Z score, PDE7A: high throughput 5FOA growth screen
Sequence of PDE7A (Q13946 whole entry, the tested form may be a part): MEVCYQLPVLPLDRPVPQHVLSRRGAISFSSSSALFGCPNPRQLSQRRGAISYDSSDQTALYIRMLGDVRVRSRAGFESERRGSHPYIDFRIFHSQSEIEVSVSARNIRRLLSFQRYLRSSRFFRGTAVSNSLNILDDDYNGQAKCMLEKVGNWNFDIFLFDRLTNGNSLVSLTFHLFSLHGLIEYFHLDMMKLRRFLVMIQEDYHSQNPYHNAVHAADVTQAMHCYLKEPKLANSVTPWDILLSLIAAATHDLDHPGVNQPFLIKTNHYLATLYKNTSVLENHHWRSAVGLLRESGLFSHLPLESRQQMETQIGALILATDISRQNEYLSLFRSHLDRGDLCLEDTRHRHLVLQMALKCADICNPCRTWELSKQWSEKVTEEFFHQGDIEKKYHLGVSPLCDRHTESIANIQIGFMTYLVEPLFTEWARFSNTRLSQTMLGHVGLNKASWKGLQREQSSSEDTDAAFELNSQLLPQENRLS
Summary of the method: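 Fission yeast carrying an fbp1-ura4 reporter were pregrown to exponential phase at 30 °C in EMM with 0–2.5 mM cAMP (or 0.5/1.0 mM cGMP), then moved into 5FOA medium with 100 nl pinned compound (10 mM stocks). Growth was read as OD600 after 48 h at 30 °C and scored as composite Z scores.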

Composite Z score, PDE4A5 (PDE4A5) | Composite Z score, PDE7A (PDE7A) | 1 Assay (20 uM) 4A5 (PDE4A5; PDE 4A5) | 1 Assay (20 uM) 7A (PDE7A; PDE 7A) | 2 Assay (2 uM), 4A5 (PDE4A5; 2 uM, PDE 4A5) | 2 Assay (2 uM), 7A (PDE7A; 2 uM, PDE 7A) | SMILES
−0.378 | −0.995 |  |  |  |  | CNc1nc(=S)[nH]c2sc3c(c12)CCCC3 [2054 E08]
1.3723 | 0.7021 |  |  |  |  | Cc1nc(N2CCC(C)CC2)c2c(C)c(C(=O)N3CCN(c4ccc(F)cc4)CC3)sc2n1 [Compound 2040N10]
2.4446 | 0.5923 |  |  |  |  | COc1ccccc1CNC(=O)c1sc2ncnc(N3CCN(c4ccccc4F)CC3)c2c1C [2041 E21]
 |  | 51.82 ND ND ND ND | 1.07 ND ND ND ND |  |  | CCc1ccc2c(c1)c1nc3ccccc3nc1n2CC [2015, P06]
154.72 | 24.881 |  |  |  |  | Cc1c(C(=O)Nc2ccc(F)cc2F)sc2ncnc(N3CCC(C)CC3)c12 [BC58]
−0.939 | −0.933 |  |  |  |  | Cc1c(C(=O)N2CCCCCC2)sc2ncnc(N3CCN(c4ccccc4)CC3)c12 [Compound 2041I21]
−0.334 | −0.684 |  |  |  |  | Cc1cc(C)c(C)c(S(=O)(=O)N2CCN(c3ncnc4sc5c(c34)CCCC5)CC2)c1C [Compound 2012L13]
0.5516 | −0.737 |  |  |  |  | CC1CC(=O)N(c2ncnc3sc4c(c23)CCCC4)N1 (stereo not shown) [2054 E16]
2.0846 | −0.346 |  |  |  |  | OCCNc1ncnc2sc3c(c12)CCCC3 [Compound 2051H22]
−0.574 | −0.398 |  |  |  |  | c1csc(CCNc2ncnc3sc4c(c23)CCC4)c1 [Compound 2005M12]
1.0025 | 1.181 |  |  |  |  | CCNc1nc(SCc2ccc(Cl)cc2)nc2sc3c(c12)CCN(C)C3 [Compound 2054P05]
 |  | 16.94 | 104.31 | 8.43 | 8.65 | COc1ccc2c(c1)[C@@]1(C)CCC[C@](C)(CO)C1CC2 (stereo partly shown) [Compound 2067M03]
13.196 | 0.2354 |  |  |  |  | CCOC(=O)c1sc2nc(C)nc(N(C)Cc3ccccc3)c2c1C [Compound 2007L04]
26.878 | 30.877 |  |  |  |  | O=C(Nc1ncnc2sc3c(c12)CCCCC3)c1ccc(F)cc1 [Compound 2012F09]
0.4891 | 0.6002 |  |  |  |  | COc1cc(OC)c(NC(=O)c2sc3ncnc(N4CCCCC4C)c3c2C)cc1Cl (stereo not shown) [Compound 2040J10]
 |  | 49.61 ND ND ND ND | 4.47 ND ND ND ND |  |  | c1ccc(CCn2c3ccccc3c3nc4ccccc4nc32)cc1 [2019, G03]
